Reference: patent US20190315814A1, “LANTIBIOTIC VARIANTS AND USES THEREOF” (priority 2016, published 2019)
In brackets after ≈: the same amount, converted by molar mass. Like-named read-outs stand apart in the source and are kept apart here. Marks after values point to notes of the source that are not given here.

Tests used:
[1] = system: Streptococcus pneumoniae (ATCC 700675); assay: MIC assay against Streptococcus pneumoniae; assay type: cell-based; settings: ATCC700675, read-out: MIC S. pneumonia
in vitro = settings: simulated gi fluid
Experimental: Assay incubation conditions included […] simulated gastric fluid (SGF, USP 39 Test Solution; 2 g/L NaCl, 7 mL/L glacial HCl, pH 1.4) containing 1.75 mg/mL Pepsin (3200-4500 U/mg) mixed with 7.5 μL of 10 mg/mL variant (or positive control, NH2-Met-Arg-Phe-Ala-OH, MRFA, CAS#67368-29-0) for a final concentration of 300 μg/ml variant in a microfuge tube. Samples were incubated at 37° C. and analyzed using HPLC or LC-MS for loss of substrate. The percent remaining, elimination rate constant (Ke), and in vitro protein half-lives were calculated. A control of SGF without enzyme was also run and analyzed in the same manner for each variant.

[2] = system: Clostridium difficile UNT103-1; assay: Non-cannulated Syrian hamster C. difficile infection model, oral gavage; assay type: in vivo, Golden Syrian hamsters
Experimental: (§1) Following the recovery phase, male Golden Syrian hamsters were inoculated with Clostridium difficile UNT103-1 (VA11, non epidemic (cdtB-, REA group J) Curtis Donskey, Cleveland VA Hospital, Cleveland, Ohio). On Day 1, at 24 hrs after infection, all animals received a single subcutaneous injection of clindamycin (10 mg/kg). Test article formulations were administered three times per day (TID), starting on Day 2 at 18 hours after Clindamycin injection, for 5 consecutive days (Days 2 through 6), and followed until Day 22 to assess recurrence. Vancomycin (positive control) was administered once a day at 20 mg/kg on Days 2 through 6. Cecal spore counts and Toxins A and B were determined as described above

[3] = system: Clostridium difficile UNT103-1; assay: Second non-cannulated Syrian hamster C. difficile infection model, oral gavage dose range-finding; assay type: in vivo, Golden Syrian hamsters
Experimental: as §1, with “formulated at 3 to 5 different doses” for “formulations”, “above.” for “above”

[4] = simulated gi fluid
[5] = system: VRE Enterococcus faecalis
VRE Enterococcus faecium [6] = system: VRE Enterococcus faecium
[7] = system: Clostridium scindens (ATCC 35704)
[8] = system: Lactobacillus acidophilus (CCUG 4356)
[9] = system: Peptostreptococcus anaerobius (ATCC 27337)
[10] = system: Eggerthella lenta (ATCC 27337)
[11] = system: VRE Enterococcus faecalis; assay: organism not typed
VRE Enterococcus faecium [12] = assay: organism not typed; settings: read-out: MIC VRE ATCC 700221, strain ATCC 700221
[13] = system: Eggerthella lenta (ATCC 27337); assay: microbe, parasite or virus in culture; settings: ATCC27337, read-out: MIC E. lenta
Pseudomonas aerigunosa = assay: MIC against Gram negative P. aeruginosa; assay type: cell-based, Pseudomonas aeruginosa
Experimental: A minimum inhibitory concentration (MIC) assessment against Pseudomonas aerigunosa (a Gram negative bacterium) was performed for single site variants in the broth dilution assay as described by the CLSI (CLSI document M07-A8). Samples and Ofloxacin control were dissolved and serially diluted in 100% DMSO and 4 μL was added per well to 96-well plate with 196 μL of Cation Adjusted Mueller Hinton II Broth seeded with P. aeruginosa. […] The assay plates were loosely wrapped in a plastic bag and incubated 20-24 hours at 36° C. (aerobic conditions) and then visually examined and scored positive (+) for inhibition of growth or turbidity or negative (−) for no effect upon growth or turbidity.

Staphylococcus aureus = assay: MIC assay against Staphylococcus aureus; assay type: cell-based
[14] = 35 mg/Kg oral gavage TID, limit of detection 0.8

## CC1(C)S[C@@H]2[C@H](NC(=O)[C@H](N)c3ccccc3)C(=O)N2[C@H]1C(=O)O [Ampicillin]
[1]
  MIC: 1 mg/L (≈ 2.86 µM)

## C=C1NC(=O)[C@H](Cc2c[nH]c3ccccc23)NC(=O)[C@H](NC(=O)[C@H](CCCCN)NC(=O)[C@@H](N)C(C)C)CSC[C@@H](C(=O)N[C@H]2C(=O)N3CCC[C@H]3C(=O)NCC(=O)N[C@H](C(=O)N[C@@H](C)C(=O)N[C@@H](CC(N)=O)C(=O)N/C(=C\C)C(=O)NCC(=O)N[C@@H]3CSC[C@@H]4NC(=O)[C@H](Cc5ccc(O)cc5)NC(=O)[C@@H](CS/C=C\NC4=O)NC(=O)[C@H](CC(N)=O)NC(=O)[C@H](Cc4ccccc4)NC3=O)CS[C@H]2C)NC(=O)[C@H](CC(C)C)NC1=O [F1V R13N]
In vitro
  half-life: > 24 h
[2]; end of the study at Day 22, oral gavage, in words
  Efficacy compared with Vancomycin-treated animals: equal or superior efficacy
[2]; oral gavage TID Days 2-6, vancomycin 20 mg/kg once a day
  Percent Survival at Day-22: 100%
[2]; oral gavage, first value of A/B cell, limit of detection 0.8
  Toxin A level at Day-22: 0.8/0.8** ng/mL
[2]; oral gavage, limit of detection 2.40
  Mean LOG10 CFU/mL of feces homogenates (cecal spore counts) at Day-22: 2.4* LOG10 CFU/mL
[2]; oral gavage, second value of A/B cell, limit of detection 0.8
  Toxin B level at Day-22: 0.8/0.8** ng/mL
[3]; 2 mg/Kg oral gavage TID
  Mean LOG10 CFU/mL of feces homogenates (cecal spore counts) at Day-22: 6.13 LOG10 CFU/mL
  Toxin A level at Day-22: 578.5 ng/mL
  Toxin B level at Day-22: 462.7 ng/mL
[3]; 2 mg/Kg oral gavage TID Days 2-6
  Percent Survival at Day-22: 0%
[3]; 6 mg/Kg oral gavage TID
  Mean LOG10 CFU/mL of feces homogenates (cecal spore counts) at Day-22: 4.27 LOG10 CFU/mL
  Toxin A level at Day-22: 266.2 ng/mL
  Toxin B level at Day-22: 238.1 ng/mL
[3]; 6 mg/Kg oral gavage TID Days 2-6
  Percent Survival at Day-22: 50%
[3]; 20 mg/Kg oral gavage TID
  Mean LOG10 CFU/mL of feces homogenates (cecal spore counts) at Day-22: 3.88 LOG10 CFU/mL
  Toxin A level at Day-22: 74.2 ng/mL
  Toxin B level at Day-22: 57.8 ng/mL
[3]; 20 mg/Kg oral gavage TID Days 2-6
  Percent Survival at Day-22: 66%
[3]; 35 mg/Kg oral gavage TID Days 2-6
  Percent Survival at Day-22: 100%
[3]; [14]
  Toxin A level at Day-22: 0.8/0.8** ng/mL
  Toxin B level at Day-22: 0.8/0.8** ng/mL
[3]; 35 mg/Kg oral gavage TID, limit of detection 2.40
  Mean LOG10 CFU/mL of feces homogenates (cecal spore counts) at Day-22: 2.40* LOG10 CFU/mL
[3]; 60 mg/Kg oral gavage TID
  Mean LOG10 CFU/mL of feces homogenates (cecal spore counts) at Day-22: 2.51 LOG10 CFU/mL
  Toxin A level at Day-22: 7.3 ng/mL
  Toxin B level at Day-22: 5.5 ng/mL
[3]; 60 mg/Kg oral gavage TID Days 2-6
  Percent Survival at Day-22: 83%
[3]; end of the study at Day 21, ascending dose regimen, in words
  Efficacy compared with Vancomycin-treated animals at the same dose: superior efficacy
[4]; FaSSIF + 1% pancreatin + 3 μg/ml trypsin + 3 μg/ml chymotrypsin half-life
  half-life: > 12 h
[4]; FaSSIF only half-life
  half-life: > 12 h
[5]; VRE
  MIC VRE ATCC 51575: 32 mg/L (≈ 14.7 µM)
  MIC VRE CCUG 47775: 32 mg/L (≈ 14.7 µM)
VRE Enterococcus faecium [6]
  MIC VRE ATCC 700221: 16 mg/L (≈ 7.36 µM)
[7]
  MIC C. scindens: 4 mg/L (≈ 1.84 µM)
[8]
  MIC L. acidophilus: 0.5 mg/L (≈ 0.23 µM)
[9]
  MIC P. anaerobius: 0.25 mg/L (≈ 0.115 µM)
[10]
  MIC E. lenta: 0.5 mg/L (≈ 0.23 µM)
Heliobacter pylori
  MIC to H. Pylori without EDTA: 8 mg/L (≈ 3.68 µM)
Heliobacter pylori; with 0.05M EDTA
  MIC to H. Pylori with 0.05M EDTA: 8 mg/L

## CC(=O)NC[C@H]1CN(c2ccc(N3CCOCC3)c(F)c2)C(=O)O1 [Linezoid, Linezolid]
[5]; strain ATCC 51575, multi-site variants
  MIC VRE ATCC 51575: 2 mg/L (≈ 5.93 µM)
[11]; read-out: MIC VRE ATCC 51299
  MIC: 2 mg/L (≈ 5.93 µM)
[11]; read-out: MIC VRE ATCC 51575
  MIC: 2 mg/L (≈ 5.93 µM)
[11]; read-out: MIC VRE CCUG 47775
  MIC: 2 mg/L (≈ 5.93 µM)
VRE Enterococcus faecium [12]; multi-site variants
  MIC: 4 mg/L (≈ 11.9 µM)
VRE Enterococcus faecium [12]; single site variants
  MIC: 2 mg/L (≈ 5.93 µM)
[13]
  MIC: 1 mg/L (≈ 2.96 µM)

## CC1COc2c(N3CCN(C)CC3)c(F)cc3c(=O)c(C(=O)O)cn1c23 (stereo not drawn) [Ofloxacin]
Pseudomonas aerigunosa
  MIC: 1 mg/L (≈ 2.77 µM)

## Gentamicin
Staphylococcus aureus; strain ATCC 19636
  MIC S. aureus ATCC 19636: 0.125 mg/L
Staphylococcus aureus; strain ATCC 29213
  MIC S. aureus ATCC 29213: 0.25 mg/L
Staphylococcus aureus; strain ATCC 33591
  MIC SS. aureus ATCC 33591: 1 mg/L
Staphylococcus aureus; strain BAA-1717
  MIC S. aureus BAA-1717: 0.25 mg/L
